The term inhibition denotes the share of the control response that was lost under treatment.

The target in this experiment is T1, recombinant human mPGES-1 (Homo sapiens, UniProt O14684).
T1 construct: made in house; host or cells: Rosetta E. coli (microsomal/membrane fraction)
T1 sequence (O14684 1-152): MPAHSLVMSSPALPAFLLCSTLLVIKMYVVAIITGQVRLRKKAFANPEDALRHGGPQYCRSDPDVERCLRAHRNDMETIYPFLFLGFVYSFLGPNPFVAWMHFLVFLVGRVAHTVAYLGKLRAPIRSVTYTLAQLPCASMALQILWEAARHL
Put plainly: mPGES-1 inhibition, HTRF detection of PGE2. The experiment is classed as biochemical. The procedure, abridged:
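PGE2 formed from PGH2 in one minute by E. coli-expressed microsomal enzyme (pH 7.4, 2.5 mM GSH) was measured by competitive HTRF against a synthetic PGE2 standard curve. Compounds were preincubated 25 min at room temperature.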
(TR-FRET usually uses a lanthanide donor and a delayed reading to cut background.)

Take `CCCCCC[C@@H](C)NC(=O)c1cnc2c(c1)nc(Nc1c(Cl)cccc1Cl)n2C` [Example 411, (R)-2-(2,6-Dichlorophenylamino)-3-methyl-N-(oct-2-yl)-3H-imidazo[4,5-b]pyridine-6-carboxamide]: the inhibition at 10 µM worked out at 100%. As to `CC(C)(C)[C@H]1CC[C@H](NC(=O)c2cnc3[nH]c(Nc4c(Cl)cccc4Cl)nc3c2)CC1` [Example 379, N-((1r,4r)-4-tert.-Butylcyclohexyl)-2-(2,6-dichlorophenylamino)-3H-imidazo[4,5-b]pyridine-6-carboxamide], the inhibition at 10 µM turned out to be 100%. With `O=C(NCc1ccccc1C(F)(F)F)c1cc2nc(Nc3c(Cl)cncc3Cl)[nH]c2nc1OC1CCOC1` (centres unmarked) [Example 790, 2-(3,5-Dichloro-pyridin-4-ylamino)-5-(tetrahydrofuran-3-yl-oxy)-N-((2-trifluoromethyl-phenyl)-methyl)-3H-imidazo[4,5-b]pyridine-6-carboxamide] the figure was 97%; with `O=C(NCc1ncccc1C(F)(F)F)c1cc2nc(Nc3c(Cl)cc(F)cc3Cl)[nH]c2nc1OCC(F)F` [Example 826, 2-(2,6-Dichloro-4-fluoro-phenylamino)-5-(2,2-difluoro-ethoxy)-N-((3-trifluoromethyl-pyridin-2-yl)-methyl)-3H-imidazo[4,5-b]pyridine-6-carboxamide], 100%. As to `Cn1c(Nc2c(Cl)cncc2Cl)nc2cc(C(=O)Nc3ccc(Br)cc3)c(OC3CCOC3)nc21` (centres unmarked) [Example 848, 2-(3,5-Dichloro-pyridin-4-ylamino)-5-(tetrahydrofuran-3-yl-oxy)-N-(4-bromo-phenyl)-3-methyl-3H-imidazo[4,5-b]pyridine-6-carboxamide], the inhibition at 10 µM came out at 100%. Turning to `Cn1c(Nc2c(Cl)cncc2Cl)nc2cc(C(=O)NCc3ncccc3C(F)(F)F)c(OC3CCOC3)nc21` (centres unmarked) [Example 847, 2-(3,5-Dichloro-pyridin-4-ylamino)-5-(tetrahydrofuran-3-yl-oxy)-N-((3-trifluoromethyl-pyridin-2-yl)-methyl)-3-methyl-3H-imidazo[4,5-b]pyridine-6-carboxamide], the inhibition at 10 µM turned out to be 100%. With `COCCOc1nc2[nH]c(Nc3c(Cl)cncc3Cl)nc2cc1C(=O)NCC(F)(F)C(F)(F)C(F)(F)C(F)(F)F` [Example 802, 2-(3,5-Dichloro-pyridin-4-ylamino)-5-(2-methoxy-ethoxy)-N-(2,2,3,3,4,4,5,5,5-nonafluoro-pentyl)-3H-imidazo[4,5-b]pyridine-6-carboxamide] the figure was 96%; with `Cn1c(Nc2c(Cl)cc(F)cc2Cl)nc2cc(C(=O)NCc3ncccc3C(F)(F)F)c(OCC(F)(F)F)nc21` [Example 813, 2-(2,6-Dichloro-4-fluoro-phenylamino)-5-(2,2,2-trifluoro-ethoxy)-N-((3-trifluoromethyl-pyridin-2-yl)-methyl)-3-methyl-3H-imidazo[4,5-b]pyridine-6-carboxamide], 99%. In the case of `Cn1c(Nc2c(Cl)cc(F)cc2Cl)nc2cc(C(=O)Nc3cc(C(F)(F)F)ccn3)c(OCC(F)F)nc21` [Example 817, 2-(2,6-Dichloro-4-fluoro-phenylamino)-5-(2,2-difluoro-ethoxy)-N-(4-trifluoromethyl-pyridin-2-yl)-3-methyl-3H-imidazo[4,5-b]pyridine-6-carboxamide], the inhibition at 10 µM is 96%. With `O=C(NCC(F)(F)C(F)(F)C(F)(F)C(F)(F)F)c1cc2nc(Nc3c(Cl)cncc3Cl)[nH]c2nc1OC1CCOC1` (centres unmarked) [Example 792, 2-(3,5-Dichloro-pyridin-4-ylamino)-5-(tetrahydrofuran-3-yl-oxy)-N-(2,2,3,3,4,4,5,5,5-nonafluoro-pentyl)-3H-imidazo[4,5-b]pyridine-6-carboxamide] the figure was 96%. Take `Cn1c(Nc2c(Cl)cncc2Cl)nc2cc(C(=O)NCC(F)(F)C(F)(F)C(F)(F)C(F)(F)F)c(OC3CCOC3)nc21` (centres unmarked) [Example 849, 2-(3,5-Dichloro-pyridin-4-ylamino)-5-(tetrahydrofuran-3-yl-oxy)-N-(2,2,3,3,4,4,5,5,5-nonafluoro-pentyl)-3-methyl-3H-imidazo[4,5-b]pyridine-6-carboxamide]: the inhibition at 10 µM was 98%.

For the origin of these results see patent US8703796B2, “3H-imidazo [4, 5-B] pyridine-6-carboxamides as anti-inflammatory agents” (Boehringer Ingelheim International GmbH, priority 2008, dated 2014).
